Data from US10213451B2, “Methods and compounds for modulating the secretion or expression of adhesion proteins or angiopoietins of cells” (PACIFIC ARROW LIMITED, priority 2004, dated 2019).
Converted amounts (≈) assume the structure as drawn. Like-named read-outs stand apart in the source and are kept apart here.

Key:
[1] = test system: TOV-21G; test: MTT assay TOV-21G; assay type: cell-based; conditions: Homo sapiens, TOV21G, Clear cell
Method: (§1) Majority of ovarian cancers arise from the surface epithelium of ovary, most of them belong to the histological subtypes of clear cell and serous carcinoma. We obtained 10 more human ovarian carcinoma cell-lines of these histological subtypes for these studies. The inhibition activity exerted by Xanifolia-Y was determined with MTT assay.

[2] = test system: OVCAR3 cells; test: Apoptosis by flow cytometry of GFP-Annexin-V and propidium iodide; assay type: cell-based, human; conditions: 24 h after exposure
Method: Experiment of apoptosis of OVCAR3 cells after treatment with Xanifolia-Y was assessed with flow cytometry of GFP-Annexin-V and propidium iodide.

[3] = test system: ES2 cells inoculated into peritoneal cavity; test: Nodule formation in peritoneal cavity, ES2; assay type: in vivo, nu/nu mice; conditions: ES2, 0.25 mg/kg i.p. daily 5 days per week for two-three weeks
From the text: The relationship between the nodule formation and timelines during tumor progression are established. Usually, 4 to 6 nodules are formed during the entire period of tumor progression in this system (Lander Jr., et al., 2005). We start the drug-treatment at times equivalent to 20% and 50% of full tumor progression. At these times, the number of nodule is less and the size (weight) of the nodules is smaller. At the end of the drug-treatment, animals are euthanized and number of tumor nodules is determined and the tumor size (mass) is weighted.
Animals: 40 nu/nu mice are used per experiment.
2 groups of mice (20 each) (i) Drug-treatment start at time equivalent to 20% of full tumor progression (or on 4 days after tumor inoculation) (ii) Drug-treatment starts at time equivalent to 50% of full tumor progression (or on 10 days after tumor inoculation). On the day of starting drug-treatment, half of the animals (10) will be scarified and the number and weight of nodules will measured.
Drug-Treatments: Animals are administered daily for 5 days per week for two—three weeks. Dose: 0.25 mg/kg, through i.p. route.

[4] = test system: skin cancer cells; test: MTT assay, growth of skin cancer cells; assay type: cell-based; conditions: Homo sapiens
Method: (§2) Cells. Human cancer cell lines were obtained from American Type Culture Collection: HTB-9 (bladder), HeLa-S3 (cervix), DU145 (prostate), H460 (lung), MCF-7 (breast), K562 (leukocytes), HCT116 (colon), HepG2 (liver), U2OS (bone), T98G (brain), SK-MEL-5 (Skin) and OVCAR-3 (ovary). The cells were grown in following culture media: HeLa-53, DU145, MCF-7, Hep-G2 and T98G are in MEN (Earle's salts); HTB-9, H460, K562 and OVCAR-3 in RPMI-1640; HCT-116 and U2OS in McCoy-5A. They are supplemented with 10% fetal calf serum, glutamine and antibiotics, and incubated in an incubator with 5% CO2 humidified at 37° C.
(§3) MTT Assay. The procedure for MTT assay followed the method described by Carmichael et al. (1987) with modifications. […] The formazan (product of the reduction of tetrazolium by viable cells) formed and was dissolved with DMSO and the O.D. at 490 nm, and was measured by an ELISA reader. The MTT level of the cells before drug-treatment was also measured (T0). The % cell-growth (% G) is calculated as: % G=(TD−T0/TC−T0)×100(1), where TC or TD represents O.D. readings of control or drug-treated cells. When T0>TD, then the cytotoxicity (LC) expressed as % of the control is calculated as: % LC=(TD−T0/T0)×100(2).

[5] = test system: Fibronectin cellular content in ES2 cells; test: Cellular contents of Fibronectin and beta-actin (Western blot); assay type: cell-based, human; conditions: 24 hours
Method: Cells: ES2 (human ovarian carcinoma cells) were grew in RPMI 1640 medium. 1.5 million cells were seeded in a T25 flask and grown for 24 hours before drug-treatment. Drug-treatment: Cells cultures were replaced with fresh RPMI medium containing either 2.5 ul of DMSO (as control) [D]; or 10 ug/ml (final concentration) of Xanifolia-Y3 [Y]. After 24 hours, aliquot of culture medium was taken out for Fibronectin determination (Western blot method). The attached cells were suspended in 1 ml of SDS sample buffer (cell-extract).
Western Blot: Spent culture medium (0.6 ml) was mixed with SDS sample buffer (0.2 ml), and the cell-extract was boiled for 3 minutes before loading to SDS gel. Samples (80 ul/lane) were applied to a 6%-10% SDS gel and electrophoresis was conducted with 100 volts for 2 hours. Protein was transferred to a nitrocellulose membrane electrophoretically (30 min at 100 volts). The nitrocellulose blot was blocked with 5% non-fat dry milk in PBS (1-2 hours). The blot was then incubated with the first antibodies (mouse anti-FN, specific to human FN, SIGMA F0916 and mouse anti-beta actin, SIGMA A5316) and second antibody (Anti-mouse IgG AP conjugated, Promega S3721). The immuno-bands were developed with BCIP/NBT color development system (Promega S3771). Determination of Western band intensity: The band-images of Western blot were captured with a digital camera (3-5 pictures were taken per gel) and the intensity of bands was determined using “Image J” software.
FN concentrations were normalized with the cellular beta-Actin concentrations. Fibronectin secreted into medium and inside Y-treated cells were determined and compare to controls (DMSO-treated cells).

[6] = test system: ovarian cancer cells; test: MTT assay, growth of ovarian cancer cells (FIG. 3A, 3B); assay type: cell-based; conditions: Homo sapiens, read-out: IC50, inhibiting growth of ovarian cancer cells
Method: as §2, §3

[7] = test system: 60 cancer cell lines; test: Test with 60 cancer cell lines; assay type: cell-based; conditions: most of 60 cancer cell lines tested
Method: To investigate the anti-tumor activity of Xanthoceras sorbifolia, we employed cancer cell lines derived from different human organs and tested the effect on growth activity. […] Intl App'l No. PCT/US04/33359 and U.S. Ser. No. 10/906,303. The active compound was then purified and named Xanifolia-Y. Its chemical structure was determined by 2D NMR and MS analysis. Xanifolia-Y is a novel triterpenoid saponin with a diangeloyl group attached at one end and carbohydrates or sugar moieties at another end of the triterpene structure. In an embodiment, the diangeloyl attached at C21, C22 positions and carbohydrates or sugar moieties at C3 position of a triterpene structure. The diangeloyl group is important for its activity. The purified compound has been tested with 60 cancer cell lines.

[8] = test system: human ovarian cancer cell lines; test: MTT assay, additional human ovarian cancer cell lines; assay type: cell-based; conditions: 10 additional human ovarian cancer cell lines
Method: as §1

For `C/C=C(/C)C(=O)O[C@H]1[C@H](OC(=O)/C(C)=C\C)[C@@]2(CO)C(CC1(C)C)C1=CCC3[C@@]4(C)CC[C@H](O[C@@H]5OC(C(=O)O)[C@@H](O)C(O[C@@H]6O[C@@H](CO)C(O)C6O)C5O[C@@H]5OC(CO)[C@H](O)C(O)C5O)C(C)(C)C4CC[C@@]3(C)[C@]1(C)[C@@H](O)[C@H]2O` (stereo partly drawn) [Xanifolia-Y, 3-O-[β-D-galactopyranosyl (1→2)]-α-L-arabinofuranosy (1→3)-β-D-glucuronopyranosyl-21,22-O-diangeloyl-3β, 15α, 16α, 21β, 22α, 28-hexahydroxyolean-12-ene], the IC50 [1] was 2200 nM, the “form of cell death induced” value [2] was “apoptosis is a major form of cell death” and the “numbers of tumor nodules” value [3] was “less”. The size of tumor [3] was “smaller”, the IC50 ([4]; FIG. 3C, purified compound, read-out: IC50, inhibition of growth of skin cancer cells) was 0.23 µg/mL (≈ 0.202 µM) and the IC50 ([4]; read-out: IC50 on skin cells) was 12 µg/mL (≈ 10.5 µM). For the same compound, the cellular beta-actin content ([5]; 10 ug/ml) was “no change”, the “decrease of Fibronectin cellular content” value ([5]; 10 ug/ml) was 70% and the activity at 10 µg/mL ([5]; Homo sapiens, ES-2, 10 ug/ml, read-out: Fibronectin cellular content, % of control) was 30%. The IC50 [6] was ~1.5 µg/mL (≈ 1.31 µM), the GI50 [7] was 100 to 1000 nM and the IC50 [8] was 2 to 12 µM. For the same compound, the IC50 ([8]; Homo sapiens) was 2 to 10 µM.
